The results in this text go back to article PMC7199514 (Frontiers in Chemistry, 2020).

Molecules are shown by their SMILES.

For one test, the system named is A549 cells. Put plainly: MTT antiproliferation assay, A549. To be noted: read-out: IC50 to cell lines, A549, exposed to tested compounds for 48 h. Background: Tetrazolium dyes change colour on reduction, which living cells bring about.
The test system of another test is A431 cells. Put plainly: MTT antiproliferation assay, A431. To be noted: read-out: IC50 to cell lines, A431, exposed to tested compounds for 48 h.
In the next test the test system is HeLa cells. Put plainly: MTT antiproliferation assay, HeLa. To be noted: read-out: IC50 to cell lines, HeLa, exposed to tested compounds for 48 h.
For the next test, the system named is MCF-7 cells. Put plainly: MTT antiproliferation assay, MCF-7. Particulars: read-out: IC50 to cell lines, MCF-7, exposed to tested compounds for 48 h.
Test [1] has as its system A549 cisplatin-resistant subline A549/DDP. Put plainly: MTT antiproliferation assay, A549/DDP. To be noted: read-out: IC50 to cell lines, A549/DDP, exposed to tested compounds for 48 h.
Description: (§2) The cancer cell lines HeLa, A549, MCF-7, and A431 were obtained from the Center for Cell Resource of Peking Union Medical College Hospital, except that A549 cisplatin-resistant subline A549/DDP was obtained by incubation of increased concentration of cisplatin in the culture media until the IC50 value toward cisplatin was above three times of that of A549 cells. The cells were maintained in DMEM (Invitrogen, USA) media supplemented with 10% fetal calf serum (HyClone, USA), 1% PS at 310 K with 5% CO2. The IC50 values were determined using 3-(4,5-dimethyl-2-thiazolyl)-2,5-diphenyl-2-H-tetrazolium bromide (MTT) assay. […] Then cells were exposed to each tested compound at eight concentrations for 48 h. The resulting solution was removed and washed for two times using PBS; then 100 μl cell culture medium containing MTT (0.5 mg/ml) was added to the wells and incubated at 310 K for 4 h. Finally, the MTT media was removed and 100 μl DMSO added to each well to dissolve the formazan crystals. The optical density (OD) values were measured using a microplate reader (SpectraMax M5) at the wavelength of 570 nm. […] The IC50 value was calculated in Origin 8.0 using the logistic regression model. All reported values were averages of six independent experiments and expressed as mean ± standard deviation (SD).
For test [2], the target named is T1, EGFR (kinase domain only) (Homo sapiens, UniProt P00533).
T1 construct: mixed with as-prepared EGFR (kinase domain only) solution; purchased Cell Signaling Technology, Inc. (assay kit); 7909
T1 sequence (P00533 712-979 limits assumed): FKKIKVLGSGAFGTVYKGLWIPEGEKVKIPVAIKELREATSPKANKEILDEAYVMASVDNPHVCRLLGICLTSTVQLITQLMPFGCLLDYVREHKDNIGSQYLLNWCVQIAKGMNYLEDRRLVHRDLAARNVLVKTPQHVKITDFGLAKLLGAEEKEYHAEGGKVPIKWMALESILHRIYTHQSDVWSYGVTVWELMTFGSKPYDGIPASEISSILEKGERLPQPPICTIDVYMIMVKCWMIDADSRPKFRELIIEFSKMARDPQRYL
Put plainly: EGFR inhibition by ELISA. It is filed as biochemical. To be noted: ELISA in the presence of 200 μM of ATP. On the procedure:
Enzyme-linked immunosorbent assay (ELISA) was employed to evaluate the inhibition of compounds against EGFR. The ELISA screening was performed following the instruction provided by the supplier of the assay kits (no. 7909, Cell Signaling Technology, Inc.). An aliquot (10 μl) of the enzyme solution was added to 415 μl dithiothreitol (DTT) kinase buffer, which consists of 1.25 M DTT and 4 × HTScan® tyrosine kinase buffer [240 mM HEPES (pH 7.5), 20 mM MgCl2, 20 mM MnCl2, and 12 μM Na3VO4]. Each tested Pt compound was dissolved in dimethyl sulfoxide (DMSO) to give a 4 mM solution which was then diluted by deionized water prior to use. The ATP/peptide mixture was prepared by addition of 10 μl of 2.5 mM ATP to 125 μl of 6 μM substrate peptide and then diluted with D2O to 250 μl. An aliquot (12.5 μl) of the solution of a tested compound was mixed with as-prepared EGFR (kinase domain only) solution [12.5 μl, in 50% glycerol, containing 50 mM HEPES (pH = 7.6), 150 mM NaCl, 0.1% Triton, and 1 mM DTT, Sigma Chemical Company] and incubated at 298 K for 5 min, followed by addition of 25 μl of ATP/substrate mixture, and then the resulting mixture was incubated at 310 K for 1 h. The phosphorylation reaction was terminated by the addition of 50 μl/well stop buffer (50 mM EDTA, pH = 8). Each well of a microtiter plate was coated with 100 μl of 10 μg/ml streptavidin (Tianjin Biotechnology Co. Ltd., China) in carbonate–bicarbonate buffer and incubated overnight at 277 K and then blocked with 1.5% bovine serum albumin (BSA, Xinjingke Biotechnology Co. Ltd., China) in PBS/T (PBS solution containing 0.05% Tween-20) at 310 K for 2 h, followed by three times of washing with PBS/T prior to use. Then, 25 μL/well of each enzymatic reaction mixture and 75 μL/well of D2O were added to the plate (in triplicate) for incubation at 310 K for 1 h. Following three times of washing with PBS/T, 100 μl of primary antibody (phospho-tyrosine mouse mAb, 1:1,000 in PBS/T with 1.5% BSA) was added to each well, and the plate was incubated at 310 K for another 1 h. The plate was again washed three times with PBS/T, and then 100 μl of the secondary antibody (HRP-labeled goat anti-mouse IgG, from Zhongshan Golden Bridge Biotechnology Co. Ltd., China, diluted 1:1,000 in PBS/T with 1.5% BSA) was added to each well and incubated for 1 h at 310 K, followed by three times of washing with PBS/T. Finally, 100 μl of 3,3′,5,5′-tetramethylbenzidine (TMB, Xinjingke Biotechnology Co. Ltd., China) substrate was added to each well, and the plate was incubated at 310 K for 15 min, and then the reaction was stopped by addition of 100 μl of 2 M H2SO4 to each well, and the plate was read on the ELISA plate reader (SpectraMax M5 Molecular Devices Corporation) at 450 nm to determine the OD values. […]
On the technique in general: In an ELISA, binding on a coated surface is turned into a signal by an enzyme label.

Test [3] deals with calf thymus DNA (ct-DNA). Put plainly: Competitive displacement of EB from ct-DNA by fluorescence titration (intercalation). The class given is binding. To be noted: Tris-HCl pH 7.4, 310 K, λex = 500 nm. The protocol:
(§1) Complexes 2 and 4 were dissolved in DMSO to yield a panel of 0.25, 0.5, 1.0, 1.5, 2.0, 3.0, 4.0, and 5.0 mM solutions. The calf thymus DNA (ct-DNA) was dissolved in Tris-HCl buffer (pH = 7.4) to give a […] solution. Ethidium bromide (EB) (10 mM, 2 μl) or Hoechst 33342 (4 mM, 5 μl) and ct-DNA ([…], 978 or 975 μl) was incubated at 310 K for 0.5 h. Then the DMSO solution of complexes (20 μl) was added to the resulting solution and kept incubated. After 2 h, each reaction mixture was measured on an F-4500 fluorescence spectrophotometer (HITACHI) with excitation wavelength at 500 nm and emission spectra from 520 to 700 nm for EB mixed solution and excitation wavelength at 370 nm and emission spectra from 400 to 650 nm for Hoechst 33342 mixed solution. A modified Stern–Volmer plot (Sarwar et al., [2015]) was employed to evaluate the affinity of complexes toward DNA.

Test [4] has as its system calf thymus DNA (ct-DNA). Put plainly: Competitive displacement of Hoechst 33342 from ct-DNA by fluorescence titration (minor groove binding). Particulars: for affinity in minor groove binding relative to intercalation with DNA: Ksv Hoechst vs Ksv EB; for Ksv (Stern–Volmer quenching constant), replacing Hoechst from ct-DNA: Tris-HCl pH 7.4, 310 K, λex = 370 nm. On the procedure: as §1

Description for A431 cells: as §2
Description for A549 cells: as §2
Description for HeLa cells: as §2
Description for MCF-7 cells: as §2

On to `N.N.[Cl][Pt][Cl]` [Cisplatin, reference compound], for which the IC50 came to 10.1 ± 1.6 µM with A549 cells; 11.1 ± 0.4 µM with A431 cells; 12.9 ± 0.6 µM in the test on HeLa cells; 15.6 ± 0.8 µM in the test on MCF-7 cells; 30.9 ± 1.1 µM in test [1].
In the case of `COc1cc2ncnc(Nc3ccc(F)c(Cl)c3)c2cc1OCCn1cc[n+]([Pt-2]23[n+]4ccccc4-c4cc(-c5ccc(C)cc5)cc([n+]42)-c2cccc[n+]23)c1.F[P-](F)(F)(F)(F)F.F[P-](F)(F)(F)(F)F` [Complex 1], the IC50 in test [2] is 0.0092 ± 0.0006 µM; with A549 cells, 13.2 ± 1.8 µM; in the test with A431 cells it was 7.7 ± 1.8 µM; with HeLa cells it was 29.8 ± 5 µM; in the test with MCF-7 cells, 20.3 ± 2.7 µM; in test [1] it was 28.9 ± 1.7 µM.
As to `COc1cc2ncnc(Nc3ccc(F)c(Cl)c3)c2cc1OCCCn1cc[n+]([Pt-2]23[n+]4ccccc4-c4cc(-c5ccc(C)cc5)cc([n+]42)-c2cccc[n+]23)c1.F[P-](F)(F)(F)(F)F.F[P-](F)(F)(F)(F)F` [Complex 2], the IC50 is 0.007 ± 0.003 µM in test [2]; 6.5 ± 2.5 µM with A549 cells; 1.4 ± 0.4 µM in the test on A431 cells; 19.4 ± 5.6 µM in the test on HeLa cells; 27.7 ± 2.2 µM in the test with MCF-7 cells; 13.5 ± 1.8 µM in test [1]. For the same compound, in the test with calf thymus DNA (ct-DNA) [3], the “Ksv (Stern–Volmer quenching constant), replacing EB from ct-DNA” value was determined as 25900 M⁻¹. For the same compound, in the test on calf thymus DNA (ct-DNA) [4], the “affinity in minor groove binding relative to intercalation with DNA” value is reported as ~ 10 times. Moreover, in the test with calf thymus DNA (ct-DNA) [4], the “Ksv (Stern–Volmer quenching constant), replacing Hoechst from ct-DNA” value worked out at 313000 M⁻¹.
Take `COc1cc2ncnc(Nc3ccc(F)c(Cl)c3)c2cc1OCCn1cc[n+]([Pt-2]23[n+]4ccccc4-c4cc(-c5ccc(Br)cc5)cc([n+]42)-c2cccc[n+]23)c1.F[P-](F)(F)(F)(F)F.F[P-](F)(F)(F)(F)F` [Complex 3]: the IC50 in test [2] was determined as 0.0109 ± 0.003 µM; with A549 cells, 12.2 ± 2.2 µM; in the test with A431 cells it was 7.4 ± 0.4 µM; in the test with HeLa cells it was 13.4 ± 1.3 µM; with MCF-7 cells it was 24.8 ± 1.1 µM; in test [1], 32 ± 1.6 µM.
Regarding `COc1cc2ncnc(Nc3ccc(F)c(Cl)c3)c2cc1OCCCn1cc[n+]([Pt-2]23[n+]4ccccc4-c4cc(-c5ccc(Br)cc5)cc([n+]42)-c2cccc[n+]23)c1.F[P-](F)(F)(F)(F)F.F[P-](F)(F)(F)(F)F` [Complex 4], the IC50 turned out to be 0.0096 ± 0.0025 µM in test [2]; 11.6 ± 1.1 µM in the test with A549 cells; 7.9 ± 3.2 µM with A431 cells; 39.4 ± 0.1 µM with HeLa cells; 19.9 ± 2.7 µM with MCF-7 cells; 26.6 ± 3 µM in test [1]. Also, in the test with calf thymus DNA (ct-DNA) [3], the “Ksv (Stern–Volmer quenching constant), replacing EB from ct-DNA” value stood at 18900 M⁻¹. For the same compound, the “affinity in minor groove binding relative to intercalation with DNA” value in the test on calf thymus DNA (ct-DNA) [4] is ~ 10 times. The “Ksv (Stern–Volmer quenching constant), replacing Hoechst from ct-DNA” value in the test on calf thymus DNA (ct-DNA) [4] amounted to 311000 M⁻¹.
